Bounds are passed on as bounds.

Assay [1] concerns human cervical tumor cell line HeLa (ATCC CCL-2). Briefly: SAC-Formation - Paclitaxel-Induced Assay. The following applies: Homo sapiens, HeLa, 24 h, HeLa cells, paclitaxel 0.05 μM, test range 0.005 μM-20 μM, read-out: IC50 [mol/l] SAC-Formation - Paclitaxel-Induced Assay. In kind it is cell-based. The procedure, abridged:
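Read-out is high-content imaging of anti-phospho-H3 Ser10 (mitosis) and Hoechst 33342 (DNA, cell number), with decreased mitotic fraction marking checkpoint breakthrough. Compounds (0.005–20 μM) and 0.05 μM paclitaxel co-added to overnight-plated HeLa for 24 h at 37° C; four-parameter Hill fit.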

The next assay addresses T1, CDK2/CycE (Homo sapiens, UniProt P24941).
T1 construct: GST; purchased ProQinase GmbH (Freiburg, Germany); host or cells: insect cells (Sf9)
The experiment in a line: CDK2/CycE kinase assay (TR-FRET). The class given is biochemical. The following applies: avg, read-out: CDK2 avg (IC50 [mol/l]). In a few lines:
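Read-out is a TR-FRET 665/620 nm emission ratio from EDTA-stopped reactions detected with anti-pRB(pSer807/pSer811), Eu-labelled anti-mouse IgG and streptavidin-XL665, scaled between no-enzyme and uninhibited wells. Reaction: Sf9-expressed GST-CDK2/GST-CycE, 15 min compound preincubation, 10 μM ATP, 0.75 μM biotin-peptide, 25 min, 22° C., pH 8.0 Tris buffer.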
(In TR-FRET formats the signal depends on donor and acceptor labels being close together.)

In the case of `Cc1nsc(Nc2cnc(C(F)(F)F)cn2)c1C(=O)Nc1ccc(C(=O)NCCN2CCCC(F)C2)cc1` (stereo not drawn) [Example 213, N-(4-{[2-(3-fluoropiperidin-1-yl)ethyl]carbamoyl}phenyl)-3-methyl-5-{[5-(trifluoromethyl)pyrazin-2-yl]amino}-1,2-thiazole-4-carboxamide], the IC50 in assay [1] is 2.9 µM; on CDK2/CycE, more than 20 µM.
As to `Cc1nsc(Nc2cnc(C(F)(F)F)cn2)c1C(=O)Nc1ccc(OCCNC(=O)OC(C)(C)C)c(F)c1` [Example 215, tert-butyl [2-(2-fluoro-4-{[(3-methyl-5-{[5-(trifluoromethyl)pyrazin-2-yl]amino}-1,2-thiazol-4-yl)carbonyl]amino}phenoxy)ethyl]carbamate], the results for the IC50 (in assay [1]; on CDK2/CycE) were 0.072 µM and more than 20 µM, respectively.
For `Cc1nsc(Nc2cncc(C(F)(F)F)n2)c1C(=O)Nc1ccc(OCCNC(=O)OC(C)(C)C)c(F)c1` [Example 216, tert-butyl [2-(2-fluoro-4-{[(3-methyl-5-{[6-(trifluoromethyl)pyrazin-2-yl]amino}-1,2-thiazol-4-yl)carbonyl]amino}phenoxy)ethyl]carbamate], the values for the IC50 (in assay [1]; on CDK2/CycE) were 0.14 µM and more than 20 µM, respectively.
On to `Cc1nsc(Nc2cnc(C(F)(F)F)cn2)c1C(=O)Nc1ccc(OC2CCN(C(=O)OC(C)(C)C)CC2)c(F)c1` [Example 217, tert-butyl 4-(2-fluoro-4-{[(3-methyl-5-{[5-(trifluoromethyl)pyrazin-2-yl]amino}-1,2-thiazol-4-yl)carbonyl]amino}phenoxy)piperidine-1-carboxylate], for which the IC50 in assay [1] was 0.41 µM; on CDK2/CycE, more than 20 µM.
With `Cc1nsc(Nc2cncc(C(F)(F)F)n2)c1C(=O)Nc1ccc(OC2CCN(C(C)C)CC2)nc1` [Example 218, N-{6-[(1-isopropylpiperidin-4-yl)oxy]pyridin-3-yl}-3-methyl-5-{[6-(trifluoromethyl)pyrazin-2-yl]amino}-1,2-thiazole-4-carboxamide], the results for the IC50 (in assay [1]; on CDK2/CycE) were 3.9 µM and more than 20 µM, respectively.
For `Cc1nsc(Nc2cncc(C(F)(F)F)n2)c1C(=O)Nc1ccc(OC2CCN(C)CC2)nc1` [Example 219, 3-methyl-N-{6-[(1-methylpiperidin-4-yl)oxy]pyridin-3-yl}-5-{[6-(trifluoromethyl)pyrazin-2-yl]amino}-1,2-thiazole-4-carboxamide], in that order: 0.66 µM and more than 20 µM.
In the case of `Cc1nsc(Nc2cnc(C(F)(F)F)cn2)c1C(=O)Nc1ccc(OC2CCN(C)CC2)nc1` [Example 220, 3-methyl-N-{6-[(1-methylpiperidin-4-yl)oxy]pyridin-3-yl}-5-{[5-(trifluoromethyl)pyrazin-2-yl]amino}-1,2-thiazole-4-carboxamide], the results for the IC50 (in assay [1]; at CDK2/CycE) were 0.97 µM and more than 20 µM, respectively.
Regarding `Cc1nsc(Nc2cnc(C(F)(F)F)cn2)c1C(=O)Nc1ccc(OCCN)c(F)c1` [Example 221, 3-N-[4-(2-aminoethoxy)-3-fluorophenyl]-3-methyl-5-{[5-(trifluoromethyl)pyrazin-2-yl]amino}-1,2-thiazole-4-carboxamide], the IC50 in assay [1] is 0.5 µM; at CDK2/CycE, more than 20 µM.
Regarding `Cc1nsc(Nc2cncc(C(F)(F)F)n2)c1C(=O)Nc1ccc(C(=O)NC2CCN(C(=O)OC(C)(C)C)CC2)cc1` [Example 222, tert-butyl 4-[(4-{[(3-methyl-5-{[6-(trifluoromethyl)pyrazin-2-yl]amino}-1,2-thiazol-4-yl)carbonyl]amino}benzoyl)amino] piperidine-1-carboxylate], the IC50 in assay [1] is 0.82 µM; on CDK2/CycE, more than 20 µM.
Turning to `Cc1nsc(Nc2cncc(C(F)(F)F)n2)c1C(=O)Nc1ccc(OC2CCN(CCF)CC2)c(F)c1` [Example 223, N-(3-fluoro-4-{[1-(2-fluoroethyl)piperidin-4-yl]oxy}phenyl)-3-methyl-5-{[6-(trifluoromethyl)pyrazin-2-yl]amino}-1,2-thiazole-4-carboxamide], the IC50 in assay [1] was 0.11 µM; on CDK2/CycE it was more than 20 µM.
On the same counts, the results for `Cc1nsc(Nc2cncc(C(F)(F)F)n2)c1C(=O)Nc1ccc(OC2CCN(CC(F)F)CC2)c(F)c1` [Example 224, N-(4-{[1-(2,2-difluoroethyl)piperidin-4-yl]oxy}-3-fluorophenyl)-3-methyl-5-{[6-(trifluoromethyl)pyrazin-2-yl]amino}-1,2-thiazole-4-carboxamide] are 0.18 µM and more than 20 µM.
Turning to `Cc1nsc(Nc2cncc(C(F)(F)F)n2)c1C(=O)Nc1ccc(C(=O)NC2CCN(CC(F)F)CC2)cc1` [Example 225, N-N-(4-{[1-(2,2-difluoroethyl)piperidin-4-yl]carbamoyl}phenyl)-3-methyl-5-{[6-(trifluoromethyl)pyrazin-2-yl]amino}-1,2-thiazole-4-carboxamide], the IC50 in assay [1] was 0.57 µM; at CDK2/CycE, more than 20 µM.
For the molecule `Cc1nsc(Nc2cncc(C(F)(F)F)n2)c1C(=O)Nc1ccc(OCC2CCN(C(=O)OC(C)(C)C)CC2)nc1` [Example 226, tert-butyl 4-{[(5-{[(3-methyl-5-{[6-(trifluoromethyl)pyrazin-2-yl]amino}-1,2-thiazol-4-yl)carbonyl]amino}pyridin-2-yl)oxy]methyl}piperidine-1-carboxylate], the figures for the IC50 (in assay [1]; at CDK2/CycE) were 0.21 µM and more than 20 µM, respectively.
`Cc1nsc(Nc2cnc(C(F)(F)F)cn2)c1C(=O)Nc1ccc(OCC2CCN(C(=O)OC(C)(C)C)CC2)nc1` [Example 227, tert-butyl 4-{[(5-{[(3-methyl-5-{[5-(trifluoromethyl)pyrazin-2-yl]amino}-1,2-thiazol-4-yl)carbonyl]amino}pyridin-2-yl)oxy]methyl}piperidine-1-carboxylate]: the IC50 is 0.3 µM in assay [1] and more than 20 µM on CDK2/CycE.
Take `Cc1nsc(Nc2cnc(C(F)(F)F)cn2)c1C(=O)Nc1ccc(OCC2CCCN(C(=O)OC(C)(C)C)C2)nc1` (stereo not drawn) [Example 228, tert-butyl 3-{[(5-{[(3-methyl-5-{[5-(trifluoromethyl)pyrazin-2-yl]amino}-1,2-thiazol-4-yl)carbonyl]amino}pyridin-2-yl)oxy]methyl}piperidine-1-carboxylate]: the values for the IC50 (in assay [1]; at CDK2/CycE) were 0.048 µM and more than 20 µM, respectively.
On to `Cc1nsc(Nc2cnc(C(F)(F)F)cn2)c1C(=O)Nc1ccc(F)c(OC2CCN(C(=O)OC(C)(C)C)CC2)c1` [Example 229, tert-butyl 4-(2-fluoro-5-{[(3-methyl-5-{[5-(trifluoromethyl)pyrazin-2-yl]amino}-1,2-thiazol-4-yl)carbonyl]amino}phenoxy)piperidine-1-carboxylate], for which the IC50 was 0.36 µM in assay [1] and more than 20 µM on CDK2/CycE.
Regarding `Cc1nsc(Nc2cc(C#N)ccn2)c1C(=O)Nc1ccc(Oc2cccc(C(F)(F)F)c2)nc1` [Example 230, 5-[(4-cyanopyridin-2-yl)amino]-3-methyl-N-{6-[3-(trifluoromethyl)phenoxy]pyridin-3-yl}-1,2-thiazole-4-carboxamide], the results for the IC50 (in assay [1]; at CDK2/CycE) were 0.082 µM and more than 20 µM, respectively.
As for `Cc1nsc(Nc2cnc3ccccc3n2)c1C(=O)Nc1ccc(Oc2cccnc2)nc1` [Example 231, 3-methyl-N-[6-(pyridin-3-yloxy)pyridin-3-yl]-5-(quinoxalin-2-ylamino)-1,2-thiazole-4-carboxamide], the IC50 was 0.26 µM in assay [1] and more than 20 µM at CDK2/CycE.
In the case of `Cc1nsc(Nc2cnc3ccccc3n2)c1C(=O)Nc1ccc(Oc2ccc(SC(F)(F)F)cc2)nc1` [Example 233, 3-methyl-5-(quinoxalin-2-ylamino)-N-(6-{4-[(trifluoromethyl)sulfanyl]phenoxy}pyridin-3-yl)-1,2-thiazole-4-carboxamide], the IC50 in assay [1] is 4.1 µM; on CDK2/CycE, more than 20 µM.
Take `Cc1nsc(Nc2cnc3ccccc3n2)c1C(=O)Nc1ccc(NC2CCN(C(=O)OC(C)(C)C)CC2)nc1` [Example 234, tert-butyl 4-{[5-({[3-methyl-5-(quinoxalin-2-ylamino)-1,2-thiazol-4-yl]carbonyl}amino)pyridin-2-yl]amino}piperidine-1-carboxylate]: the figures for the IC50 (in assay [1]; at CDK2/CycE) were 10 µM and more than 20 µM, respectively.
In the case of `COc1ccc(NC(=O)c2c(C)nsc2Nc2cnc3ccccc3n2)c(CC#N)n1` [Example 235, N-[2-(cyanomethyl)-6-methoxypyridin-3-yl]-3-methyl-5-(quinoxalin-2-ylamino)-1,2-thiazole-4-carboxamide], the IC50 in assay [1] was 1.5 µM; on CDK2/CycE, more than 20 µM.
As to `Cc1nsc(Nc2cnc3ccccc3n2)c1C(=O)Nc1ccc(NCCC(=O)OC(C)(C)C)nc1` [Example 236, tert-butyl N-[5-({[3-methyl-5-(quinoxalin-2-ylamino)-1,2-thiazol-4-yl]carbonyl}amino)pyridin-2-yl]-beta-alaninate], the results for the IC50 (in assay [1]; at CDK2/CycE) were 20 µM and more than 20 µM, respectively.
For `COC(=O)c1cc(NC(=O)c2c(C)nsc2Nc2cnc3ccccc3n2)cc(C(=O)OC)c1` [Example 237, dimethyl 5-({[3-methyl-5-(quinoxalin-2-ylamino)-1,2-thiazol-4-yl]carbonyl}amino)isophthalate], in that order: 20 µM and more than 20 µM.
Take `Cc1nsc(Nc2cnc3ccccc3n2)c1C(=O)Nc1ccc(NCC2CCN(C(=O)OC(C)(C)C)CC2)nc1` [Example 238, tert-butyl 4-({[5-({[3-methyl-5-(quinoxalin-2-ylamino)-1,2-thiazol-4-yl]carbonyl}amino)pyridin-2-yl]amino}methyl)piperidine-1-carboxylate]: the IC50 in assay [1] was 9.7 µM; on CDK2/CycE, more than 20 µM.

(Values after US20170334899A1, “AMINO-SUBSTITUTED ISOTHIAZOLES” (Bayer Pharma Aktiengesellschaft, priority 2014, published 2017).)
